Assay results: US12391683B2, “Therapeutic compounds and methods” (Actio Biosciences, Inc., priority 2022, dated 2025)

Assays:
[1] = molecular target: T1, TRPC6 channels (Homo sapiens, UniProt Q9Y210); assay: TRP Family FLIPR Assay, TRPC6; format: cell-based; conditions: HEK293 cells
T1 construct: expressed in transfected cells; host or cells: HEK293
T1 sequence (Q9Y210 1-931): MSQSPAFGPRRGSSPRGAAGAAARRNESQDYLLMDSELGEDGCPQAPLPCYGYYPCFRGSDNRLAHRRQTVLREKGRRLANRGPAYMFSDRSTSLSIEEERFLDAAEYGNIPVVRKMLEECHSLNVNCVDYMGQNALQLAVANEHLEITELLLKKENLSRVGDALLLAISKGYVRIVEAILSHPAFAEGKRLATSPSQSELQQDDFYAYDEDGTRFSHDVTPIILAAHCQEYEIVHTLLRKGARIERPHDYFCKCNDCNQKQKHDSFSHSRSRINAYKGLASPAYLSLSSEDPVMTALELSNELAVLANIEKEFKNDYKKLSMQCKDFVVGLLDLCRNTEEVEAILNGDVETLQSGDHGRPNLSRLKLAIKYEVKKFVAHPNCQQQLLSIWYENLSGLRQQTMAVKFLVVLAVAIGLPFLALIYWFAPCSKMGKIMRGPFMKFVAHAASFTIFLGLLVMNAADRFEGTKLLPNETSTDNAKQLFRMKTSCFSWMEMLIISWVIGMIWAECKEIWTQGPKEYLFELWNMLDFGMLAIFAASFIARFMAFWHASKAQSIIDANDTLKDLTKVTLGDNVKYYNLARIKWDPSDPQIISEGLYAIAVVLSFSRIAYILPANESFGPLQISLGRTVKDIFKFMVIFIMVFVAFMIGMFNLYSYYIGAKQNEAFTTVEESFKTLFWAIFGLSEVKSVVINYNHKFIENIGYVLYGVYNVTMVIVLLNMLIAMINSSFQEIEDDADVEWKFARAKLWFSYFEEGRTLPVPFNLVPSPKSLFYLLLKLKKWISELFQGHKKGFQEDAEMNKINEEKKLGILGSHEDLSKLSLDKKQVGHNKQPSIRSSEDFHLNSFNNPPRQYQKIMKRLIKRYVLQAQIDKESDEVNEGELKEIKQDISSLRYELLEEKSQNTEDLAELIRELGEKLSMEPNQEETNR
Experimental: (§1) The compound of Example 5 was tested for selectivity against a panel of Human TRP family ion channels in a TRP Family FLIPR Assay as described below. • 1. TRPC3 channels (human TRPC3 variant 1 gene, expressed in HEK293 cells). • 2. TRPC4 channels (human TRPC4 gene, expressed in HEK293 cells). • 3. TRPC5 channels (human TRPC5 gene, expressed in HEK293 cells). • 4. TRPC6 channels (human TRPC6 gene, expressed in HEK293 cells). • 5. TRPM2 channels (human TRPM2 gene, transiently expressed in HEK293 cells). • 6. TRPM3 channels (human TRPM3 gene, transiently expressed in HEK293 cells). • 7. TRPM4 channels (human TRPM4 gene, expressed in CHO cells). • 8. […]
(§2) Data acquisition was performed via the FLIPR Control software supplied with the FLIPR System (MDS-AT) and data was analyzed using Microsoft Excel (Microsoft Corp., Redmond, WA) or GraphPad Prism. […]
(§3) [formula] where Base is the response at low concentrations of test article, Max is the maximum response at high concentrations, xhalf the EC50, or IC50, the concentration of test article producing either half-maximal activation or inhibition, and rate is the Hill coefficient. […] No assumptions about the fit parameters was made; the fit parameters were determined by the algorithm.
(§4) The effect of each test article was evaluated at eight (8) concentrations: 0.003, 0.01, 0.03, 0.1, 0.3, 1, 3 and 10 μM, n≤4 wells/concentration). […]

[2] = molecular target: T2, TRPM3 channels (Homo sapiens, UniProt Q9HCF6); assay: TRP Family FLIPR Assay, TRPM3; format: cell-based; conditions: HEK293 cells (transient)
T2 construct: expressed in transfected cells; host or cells: HEK293 (transient)
T2 sequence (Q9HCF6 whole entry): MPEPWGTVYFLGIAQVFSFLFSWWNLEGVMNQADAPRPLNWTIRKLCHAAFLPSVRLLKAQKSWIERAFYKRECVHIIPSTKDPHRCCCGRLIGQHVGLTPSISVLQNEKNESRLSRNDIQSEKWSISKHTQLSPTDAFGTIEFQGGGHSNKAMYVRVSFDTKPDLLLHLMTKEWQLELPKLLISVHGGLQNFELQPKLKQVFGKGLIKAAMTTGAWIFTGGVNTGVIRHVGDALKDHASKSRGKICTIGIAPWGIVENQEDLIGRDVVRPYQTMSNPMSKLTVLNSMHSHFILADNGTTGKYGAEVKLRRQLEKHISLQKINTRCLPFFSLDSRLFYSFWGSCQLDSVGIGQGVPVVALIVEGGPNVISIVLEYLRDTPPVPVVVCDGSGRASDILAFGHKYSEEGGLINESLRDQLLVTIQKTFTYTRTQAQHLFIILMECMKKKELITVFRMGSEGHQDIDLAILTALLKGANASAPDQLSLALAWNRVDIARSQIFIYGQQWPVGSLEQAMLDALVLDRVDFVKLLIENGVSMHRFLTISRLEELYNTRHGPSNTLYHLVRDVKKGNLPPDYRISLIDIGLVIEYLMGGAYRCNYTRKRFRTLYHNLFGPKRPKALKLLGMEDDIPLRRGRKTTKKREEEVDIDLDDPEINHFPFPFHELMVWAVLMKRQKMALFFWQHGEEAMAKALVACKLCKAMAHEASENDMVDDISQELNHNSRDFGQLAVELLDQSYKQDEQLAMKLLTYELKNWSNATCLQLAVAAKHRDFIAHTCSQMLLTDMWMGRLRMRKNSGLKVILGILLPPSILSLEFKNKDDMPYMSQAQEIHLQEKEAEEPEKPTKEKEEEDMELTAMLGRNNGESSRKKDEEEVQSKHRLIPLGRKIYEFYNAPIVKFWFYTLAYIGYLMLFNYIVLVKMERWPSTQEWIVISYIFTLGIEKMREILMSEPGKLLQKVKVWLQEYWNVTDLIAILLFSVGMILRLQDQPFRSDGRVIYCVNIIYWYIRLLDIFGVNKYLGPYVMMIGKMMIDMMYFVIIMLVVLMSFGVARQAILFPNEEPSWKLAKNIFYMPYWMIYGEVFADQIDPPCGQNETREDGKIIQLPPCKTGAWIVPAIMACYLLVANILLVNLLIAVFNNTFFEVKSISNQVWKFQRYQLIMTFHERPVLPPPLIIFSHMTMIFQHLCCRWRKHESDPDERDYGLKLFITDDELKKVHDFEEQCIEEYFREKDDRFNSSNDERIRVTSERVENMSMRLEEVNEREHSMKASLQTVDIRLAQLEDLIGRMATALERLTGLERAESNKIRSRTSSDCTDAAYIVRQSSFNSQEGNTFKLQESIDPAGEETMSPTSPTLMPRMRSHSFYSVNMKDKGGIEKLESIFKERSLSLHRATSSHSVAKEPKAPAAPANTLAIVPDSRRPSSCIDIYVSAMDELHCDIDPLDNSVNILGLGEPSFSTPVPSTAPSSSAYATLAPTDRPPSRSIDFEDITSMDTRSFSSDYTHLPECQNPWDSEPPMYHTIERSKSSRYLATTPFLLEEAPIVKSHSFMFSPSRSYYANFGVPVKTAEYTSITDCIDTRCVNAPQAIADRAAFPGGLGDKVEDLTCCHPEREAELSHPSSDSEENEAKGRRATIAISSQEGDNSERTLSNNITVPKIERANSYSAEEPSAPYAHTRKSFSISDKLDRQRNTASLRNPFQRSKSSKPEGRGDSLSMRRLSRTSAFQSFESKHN
Experimental: as §1, §2, §3, §4

CC(C)(O)c1cnc(N2C[C@@]3(CC[C@@H](F)[C@](C)(Cn4cnc5ccc(C#N)cc54)C3)OC2=O)cn1 (single isomer, unassigned) [Example 5]
> 10 µM: EC50 ([1]; agonist mode, vs EMAX of Na-ATP 100 μM, read-out: EC50 hTRPC6) | IC50 ([1]; antagonist mode, activated with 10 μM Na-ATP, 0.003-10 μM, read-out: IC50 hTRPC6) | EC50 ([2]; agonist mode, vs EMAX of pregnenolone 100 μM, read-out: EC50 hTRPM3) | IC50 ([2]; antagonist mode, activated with pregnenolone 30 μM, 0.003-10 μM, read-out: IC50 hTRPM3)
